Test: Parallel artificial membrane permeability assay (PAMPA) for blood-brain barrier permeation, PSR4p analyzer
Details: for Pe (linear velocity of permeation): pH 7.4 buffer, 18 h, ambient temperature, literature compounds, averaged; for Papp at 18 h, 25 µg/mL: pig, PAMPA, pH 7.4
Source text: In actual practice, a solution of known concentration of a compound or mixture of compounds in a buffer solution is separated from a buffer solution containing 0% concentration of said compound or mixture of compounds by a porous filter membrane impregnated with a mixture of brain polar lipid extract and dodecane in such a way that the surface of each buffer solution is in contact with opposite sides of said impregnated membrane. After a measured period of time, the concentration of said compound or mixture of compounds is determined for each buffer solution and the rate of diffusion is calculated.
In one embodiment of the invention, a 96-well plate filled with solutions of a known concentration of test sample in a buffer solution (donor) may be covered with a 96-well filter plate wherein the porous filter membrane is impregnated with a mixture of brain polar lipid extract and dodecane and the wells are filled with a buffer solution containing 0% concentration of test sample (acceptor) such that the surface of each buffer solution is in contact with opposite sides of said impregnated filter membrane; after a measured period of time, the donor plate and acceptor plate are separated, the concentration of sample in each buffer solution is determined and the rate of permeation is calculated.
In another embodiment of the invention, a high through-put permeability instrument such as the PSR4p instrument manufactured by pION Inc., Woburn, Mass. may be utilized. In this embodiment, a parallel artificial membrane assay (PAMPA) technique is employed using as artificial membrane a porous filter membrane impregnated with a mixture of brain polar lipid extract and dodecane.
A 100 μL volume of each stock solution is placed into one well of a 96-well plate, and the well plate is placed in a PSR4p permeability analyzer manufactured by pION, Inc., Woburn, Mass. A 10 μL volume of stock solution is robotically added to a deep 96-well plate containing 2.0 mL of pH 7.4 buffer solution. The resultant mixture is mechanically stirred to form the donor solution. A 200 μL volume of each donor solution is placed robotically into 3 wells of a 96-well plate to afford the donor plate. A vial containing 20 mg of porcine polar brain lipid extract manufactured by Avanti Polar Lipids, Inc., Alabaster, Ala., dissolved in 1 mL of dodecane is placed in the reservoir of the PSR4p instrument. A 4 μL volume of this brain lipid solution is placed on the filter surface of each well of a 96-well microtiter filter well plate manufactured by Millipore Corp., Bedford, Mass., wherein the filter is a porous (0.45 μm) polyvinylidenefluoride material approximately 104 μm in thickness. The microtiter plate is then manually placed on an orbital shaker for 1 minute to yield a 96-well microtiter plate having a filter membrane permeated with a 2.0% wt/vol solution of porcine polar brain lipid extract in dodecane. A 200 μL volume of pH 7.4 buffer is robotically inserted into the wells of the thus-prepared microtiter 96-well filter plate to give a receptor plate, this receptor plate is placed on the donor plate to form a sandwich and allowed to stand at ambient temperature for 18 h.
A plate washer manufactured by Tecan, Hombrechin-tikon, Switzerland is then used to prepare a UV transparent 96-well plate (UV plate). The receptor plate is removed from the sandwich, a 150 μL volume of the receptor solution is robotically placed in the UV plate, and the UV absorption at 190–500 nm of each receptor well is recorded. The UV plate is then replaced in the plate washer, washed again and a 150 μL volume of the donor solution is robotically placed in the UV plate and the UV absorption at 190–500 nm of each donor well is recorded.

| Structure (SMILES) | Pe (linear velocity of permeation) | Papp at 18 h, 25 µg/mL [×10⁻⁶ cm/s] |
| --- | --- | --- |
| CN(C)CCCN1c2ccccc2Sc2ccccc21 [Promazine] | 8.84 10^−6 cm/s | > 4 |
| CCCC(C)C1(CC)C(=O)NC(=S)NC1=O (stereo not shown) [Thiopental] |  | > 4 |
| C[C@]12CCC(=O)C=C1CC[C@@H]1[C@@H]2[C@@H](O)C[C@]2(C=O)[C@@H](C(=O)CO)CC[C@@H]12 [Aldosterone] | 1.19 10^−6 cm/s | < 2 |
| CN(C)C(=O)C(CCN1CCC(O)(c2ccc(Cl)cc2)CC1)(c1ccccc1)c1ccccc1 [Loperamide] | 0.00 10^−6 cm/s | < 2 |
| CC(C)(C)c1ccc(C(O)CCCN2CCC(C(O)(c3ccccc3)c3ccccc3)CC2)cc1 (stereo not shown) [Terfenadine] | 0.00 10^−6 cm/s | < 2 |
| CN1C(=O)CC(=O)N(c2ccccc2)c2cc(Cl)ccc21 [Clobazam] | 16.85 10^−6 cm/s | > 4 |
| CN1C(C(=O)Nc2ccccn2)=C(O)c2sccc2S1(=O)=O [Tenoxicam] | 0.14 10^−6 cm/s | < 2 |
| NCCc1ccc(O)c(O)c1 [Dopamine] | 0.16 10^−6 cm/s | < 2 |
| CN(C)CCCN1c2ccccc2Sc2ccc(Cl)cc21 [Chlorpromazine] | 6.36 10^−6 cm/s | > 4 |
| COc1ccc(CCN2CCC(Nc3nc4ccccc4n3Cc3ccc(F)cc3)CC2)cc1 [Astemizole] | 10.66 10^−6 cm/s | > 4 |
| Cc1nnc2n1-c1ccc(Cl)cc1C(c1ccccc1)=NC2 [Alprazolam] | 5.44 10^−6 cm/s | > 4 |
| Cc1cc(NC(=O)C2=C(O)c3ccccc3S(=O)(=O)N2C)no1 [Isoxicam] | 0.25 10^−6 cm/s | < 2 |
| CN1C(C(=O)Nc2ccccn2)=C(O)c2ccccc2S1(=O)=O [Piroxicam] | 2.53 10^−6 cm/s | < 2 |
